Experimental data: patent US6852673B2, “Herbicidal pyridine compounds” (BASF Aktiengesellschaft, priority 1998, dated 2005)

Columns and labels:
Assay type in all cases: in vivo
Lamium purpureum (LAMPU) [1] = test: Pre-emergence herbicidal evaluation, purple deadnettle
Procedure, shortened: (§1)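 Seeds mixed with potting soil were planted over about one inch of soil per pot, then sprayed with test compound in aqueous acetone at the equivalent of about 0.0125 to 0.4 kg per hectare. Pots were kept under standard greenhouse care and visually rated 2 to 4 weeks after treatment.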

[2] = system: Triticum aestivum (TRZAW); test: Post-emergence herbicidal evaluation, winter wheat; settings: rated 2 to 4 weeks after treatment
Procedure, shortened: (§2)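 Acetone solutions of test compound were diluted with water and sprayed post-emergence at about 0.03 to 0.4 kg per hectare per pot. Plants were kept on greenhouse benches under conventional care. Seedlings were rated 2 to 4 weeks after treatment on a 0–9 scale (0 = growth as untreated control, 9 = death).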

[3] = system: Digitaria sanguinalis (DIGSA); test: Post-emergence herbicidal evaluation, large crabgrass; settings: rated 2 to 4 weeks after treatment
Procedure, shortened: as §2

[4] = system: Ambrosia artemiisifolia (AMBEL); test: Post-emergence herbicidal evaluation, ragweed; settings: rated 2 to 4 weeks after treatment
Procedure, shortened: as §2

Stellaria media (STEME) [5] = test: Post-emergence herbicidal evaluation, chickweed; settings: rated 2 to 4 weeks after treatment
Procedure, shortened: as §2

Galium aparine (GALAP) = test: Post-emergence herbicidal evaluation, cleaver; settings: rated 2 to 4 weeks after treatment
Procedure, shortened: as §2

[6] = system: Echinochloa grus galli (ECHCG); test: Pre-emergence herbicidal evaluation, barnyard grass
Procedure, shortened: as §1

Stellaria media (STEME) [7] = test: Pre-emergence herbicidal evaluation, chickweed
Procedure, shortened: as §1

[8] = system: Abutilon theophrasti (ABUTH); test: Post-emergence herbicidal evaluation, velvetleaf; settings: rated 2 to 4 weeks after treatment
Procedure, shortened: as §2

Hordeum vulgare (HORVW) = test: Post-emergence herbicidal evaluation, winter barley; settings: rated 2 to 4 weeks after treatment
Procedure, shortened: as §2

[9] = system: Matricaria inodora (MATIN); test: Post-emergence herbicidal evaluation, mayweed; settings: rated 2 to 4 weeks after treatment
Procedure, shortened: as §2

[10] = system: Triticum aestivum (TRZAW); test: Pre-emergence herbicidal evaluation, winter wheat
Procedure, shortened: as §1

[11] = system: Alopecurus myosuroides (ALOMY); test: Post-emergence herbicidal evaluation, black grass; settings: rated 2 to 4 weeks after treatment
Procedure, shortened: as §2

Solanum nigrum (SOLNI) = test: Post-emergence herbicidal evaluation, black nightshade; settings: rated 2 to 4 weeks after treatment
Procedure, shortened: as §2

[12] = system: Abutilon theophrasti (ABUTH); test: Pre-emergence herbicidal evaluation, velvetleaf
Procedure, shortened: as §1

Oryza sativum (ORYSA) [13] = test: Post-emergence herbicidal evaluation, rice; settings: rated 2 to 4 weeks after treatment
Procedure, shortened: as §2

[14] = system: Ambrosia artemiisifolia (AMBEL); test: Pre-emergence herbicidal evaluation, ragweed
Procedure, shortened: as §1

[15] = system: Ipomoea hederacea (IPOHE); test: Pre-emergence herbicidal evaluation, morning glory
Procedure, shortened: as §1

Setaria viridis (SETVI) = test: Pre-emergence herbicidal evaluation, green foxtail
Procedure, shortened: as §1

Zea mays (ZEAMX) = test: Pre-emergence herbicidal evaluation, maize
Procedure, shortened: as §1

Lamium purpureum (LAMPU) [16] = test: Post-emergence herbicidal evaluation, purple deadnettle; settings: rated 2 to 4 weeks after treatment
Procedure, shortened: as §2

Oryza sativum (ORYSA) [17] = test: Pre-emergence herbicidal evaluation, rice
Procedure, shortened: as §1

[18] = system: Ipomoea hederacea (IPOHE); test: Post-emergence herbicidal evaluation, morning glory; settings: rated 2 to 4 weeks after treatment
Procedure, shortened: as §2

Glycine max (GLXMA) [19] = test: Post-emergence herbicidal evaluation, soyabeans; settings: rated 2 to 4 weeks after treatment
Procedure, shortened: as §2

[20] = system: Alopecurus myosuroides (ALOMY); test: Pre-emergence herbicidal evaluation, black grass
Procedure, shortened: as §1

Glycine max (GLXMA) [21] = test: Pre-emergence herbicidal evaluation, soyabeans
Procedure, shortened: as §1

Cc1cc(OCC=C(Cl)Cl)nc(Oc2cc(C(F)(F)F)nn2C)c1 [Example 12]
4 (4 - Injury): ORYSA rating (Oryza sativum (ORYSA) [13]; dose 0.4 kg/ha) | GLXMA rating (Glycine max (GLXMA) [21]; dose 0.4 kg/ha)
5 (5 - Definite injury): TRZAW rating ([2]; dose 0.4 kg/ha) | AMBEL rating ([4]; dose 0.03 kg/ha) | ECHCG rating ([6]; dose 0.025 kg/ha) | HORVW rating (Hordeum vulgare (HORVW); dose 0.1 kg/ha) | SETVI rating (Setaria viridis (SETVI); dose 0.013 kg/ha) | ZEAMX rating (Zea mays (ZEAMX); dose 0.4 kg/ha) | GLXMA rating (Glycine max (GLXMA) [19]; dose 0.03 kg/ha)
7 (7 - Good herbicidal effect): AMBEL rating ([4]; dose 0.4 kg/ha) | GALAP rating (Galium aparine (GALAP); dose 0.03 kg/ha) | ABUTH rating ([12]; dose 0.025 kg/ha)
8 (8 - Approaching complete kill): LAMPU rating (Lamium purpureum (LAMPU) [1]; dose 0.013 kg/ha) | DIGSA rating ([3]; dose 0.03 kg/ha) | STEME rating (Stellaria media (STEME) [5]; dose 0.03 kg/ha) | STEME rating (Stellaria media (STEME) [5]; dose 0.1 kg/ha) | STEME rating (Stellaria media (STEME) [5]; dose 0.4 kg/ha) | GALAP rating (Galium aparine (GALAP); dose 0.1 kg/ha) | ECHCG rating ([6]; dose 0.1 kg/ha) | STEME rating (Stellaria media (STEME) [7]; dose 0.025 kg/ha) | ABUTH rating ([8]; dose 0.03 kg/ha) | MATIN rating ([9]; dose 0.03 kg/ha) | MATIN rating ([9]; dose 0.1 kg/ha) | MATIN rating ([9]; dose 0.4 kg/ha) | ALOMY rating ([11]; dose 0.03 kg/ha) | SOLNI rating (Solanum nigrum (SOLNI); dose 0.03 kg/ha) | SOLNI rating (Solanum nigrum (SOLNI); dose 0.1 kg/ha) | SOLNI rating (Solanum nigrum (SOLNI); dose 0.4 kg/ha) | ABUTH rating ([12]; dose 0.1 kg/ha) | AMBEL rating ([14]; dose 0.013 kg/ha) | AMBEL rating ([14]; dose 0.025 kg/ha) | LAMPU rating (Lamium purpureum (LAMPU) [16]; dose 0.03 kg/ha) | LAMPU rating (Lamium purpureum (LAMPU) [16]; dose 0.1 kg/ha) | LAMPU rating (Lamium purpureum (LAMPU) [16]; dose 0.4 kg/ha) | GLXMA rating (Glycine max (GLXMA) [19]; dose 0.1 kg/ha) | GLXMA rating (Glycine max (GLXMA) [19]; dose 0.4 kg/ha) | ALOMY rating ([20]; dose 0.025 kg/ha)
2 (2 - Slight effect): TRZAW rating ([10]; dose 0.025 kg/ha) | ABUTH rating ([12]; dose 0.013 kg/ha) | ORYSA rating (Oryza sativum (ORYSA) [13]; dose 0.03 kg/ha) | IPOHE rating ([15]; dose 0.013 kg/ha) | ZEAMX rating (Zea mays (ZEAMX); dose 0.025 kg/ha) | GLXMA rating (Glycine max (GLXMA) [21]; dose 0.025 kg/ha)
9 (9 - Complete kill): LAMPU rating (Lamium purpureum (LAMPU) [1]; dose 0.025 kg/ha) | LAMPU rating (Lamium purpureum (LAMPU) [1]; dose 0.1 kg/ha) | LAMPU rating (Lamium purpureum (LAMPU) [1]; dose 0.4 kg/ha) | DIGSA rating ([3]; dose 0.1 kg/ha) | DIGSA rating ([3]; dose 0.4 kg/ha) | GALAP rating (Galium aparine (GALAP); dose 0.4 kg/ha) | ECHCG rating ([6]; dose 0.4 kg/ha) | STEME rating (Stellaria media (STEME) [7]; dose 0.1 kg/ha) | STEME rating (Stellaria media (STEME) [7]; dose 0.4 kg/ha) | ABUTH rating ([8]; dose 0.1 kg/ha) | ABUTH rating ([8]; dose 0.4 kg/ha) | ALOMY rating ([11]; dose 0.1 kg/ha) | ALOMY rating ([11]; dose 0.4 kg/ha) | ABUTH rating ([12]; dose 0.4 kg/ha) | AMBEL rating ([14]; dose 0.1 kg/ha) | AMBEL rating ([14]; dose 0.4 kg/ha) | IPOHE rating ([15]; dose 0.1 kg/ha) | IPOHE rating ([15]; dose 0.4 kg/ha) | SETVI rating (Setaria viridis (SETVI); dose 0.025 kg/ha) | SETVI rating (Setaria viridis (SETVI); dose 0.1 kg/ha) | SETVI rating (Setaria viridis (SETVI); dose 0.4 kg/ha) | IPOHE rating ([18]; dose 0.03 kg/ha) | IPOHE rating ([18]; dose 0.1 kg/ha) | IPOHE rating ([18]; dose 0.4 kg/ha) | ALOMY rating ([20]; dose 0.1 kg/ha) | ALOMY rating ([20]; dose 0.4 kg/ha)
1 (1 - Trace effect): TRZAW rating ([10]; dose 0.013 kg/ha) | ORYSA rating (Oryza sativum (ORYSA) [17]; dose 0.1 kg/ha) | GLXMA rating (Glycine max (GLXMA) [21]; dose 0.013 kg/ha)
6 (6 - Herbicidal effect): AMBEL rating ([4]; dose 0.1 kg/ha) | STEME rating (Stellaria media (STEME) [7]; dose 0.013 kg/ha) | HORVW rating (Hordeum vulgare (HORVW); dose 0.4 kg/ha) | TRZAW rating ([10]; dose 0.4 kg/ha)
3 (3 - Moderate effect): TRZAW rating ([2]; dose 0.03 kg/ha) | TRZAW rating ([2]; dose 0.1 kg/ha) | ECHCG rating ([6]; dose 0.013 kg/ha) | HORVW rating (Hordeum vulgare (HORVW); dose 0.03 kg/ha) | TRZAW rating ([10]; dose 0.1 kg/ha) | ORYSA rating (Oryza sativum (ORYSA) [13]; dose 0.1 kg/ha) | IPOHE rating ([15]; dose 0.025 kg/ha) | ZEAMX rating (Zea mays (ZEAMX); dose 0.1 kg/ha) | ORYSA rating (Oryza sativum (ORYSA) [17]; dose 0.4 kg/ha) | ALOMY rating ([20]; dose 0.013 kg/ha) | GLXMA rating (Glycine max (GLXMA) [21]; dose 0.1 kg/ha)
0 (0 - No effect): ZEAMX rating (Zea mays (ZEAMX); dose 0.013 kg/ha) | ORYSA rating (Oryza sativum (ORYSA) [17]; dose 0.013 kg/ha) | ORYSA rating (Oryza sativum (ORYSA) [17]; dose 0.025 kg/ha)
